From ChEMBL document CHEMBL1142695, “Discovery of functionally selective 7,8,9,10-tetrahydro-7,10-ethano-1,2,4-triazolo[3,4-a]phthalazines as GABA A receptor agonists at the alpha3 subunit” (J Med Chem, 2005)

Experiments:
Type in all cases: cell-based
[1] = biological target: T1, GABA-A receptor; alpha-2/beta-3/gamma-2 (Homo sapiens, UniProt P18507+P28472+P47869); assay: Inhibition of [3H]Ro-151788 binding to recombinant human gamma-aminobutyric acid A receptor alpha-2-beta-3-gamma-2 subtype expressed in L (tk-) cells
T1 sequence (P18507 whole entry): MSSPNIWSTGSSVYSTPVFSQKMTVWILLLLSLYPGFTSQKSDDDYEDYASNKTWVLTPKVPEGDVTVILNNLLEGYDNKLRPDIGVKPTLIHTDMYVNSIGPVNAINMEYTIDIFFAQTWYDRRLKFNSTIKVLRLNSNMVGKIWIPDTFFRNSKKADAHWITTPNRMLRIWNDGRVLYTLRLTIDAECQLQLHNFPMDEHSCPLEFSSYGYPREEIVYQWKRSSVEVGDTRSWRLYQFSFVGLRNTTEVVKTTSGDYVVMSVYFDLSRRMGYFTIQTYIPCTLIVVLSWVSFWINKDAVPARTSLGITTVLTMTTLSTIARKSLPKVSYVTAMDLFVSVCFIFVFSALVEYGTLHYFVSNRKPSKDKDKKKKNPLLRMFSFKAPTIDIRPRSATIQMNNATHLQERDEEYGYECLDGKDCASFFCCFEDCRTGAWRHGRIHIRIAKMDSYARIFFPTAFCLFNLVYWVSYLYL
T1 sequence (P28472 whole entry): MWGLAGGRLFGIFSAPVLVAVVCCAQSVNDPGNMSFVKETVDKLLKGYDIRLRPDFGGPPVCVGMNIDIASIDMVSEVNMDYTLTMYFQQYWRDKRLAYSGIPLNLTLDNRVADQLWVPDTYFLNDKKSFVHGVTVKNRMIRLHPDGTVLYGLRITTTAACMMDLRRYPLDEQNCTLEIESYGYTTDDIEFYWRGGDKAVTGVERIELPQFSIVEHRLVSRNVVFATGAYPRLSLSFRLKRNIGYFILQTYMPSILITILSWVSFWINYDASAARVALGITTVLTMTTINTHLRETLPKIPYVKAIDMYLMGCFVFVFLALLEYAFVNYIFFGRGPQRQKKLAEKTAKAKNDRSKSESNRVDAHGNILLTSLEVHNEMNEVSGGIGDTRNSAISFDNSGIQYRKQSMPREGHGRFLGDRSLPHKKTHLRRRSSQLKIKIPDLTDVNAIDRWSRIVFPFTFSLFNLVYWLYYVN
T1 sequence (P47869 whole entry): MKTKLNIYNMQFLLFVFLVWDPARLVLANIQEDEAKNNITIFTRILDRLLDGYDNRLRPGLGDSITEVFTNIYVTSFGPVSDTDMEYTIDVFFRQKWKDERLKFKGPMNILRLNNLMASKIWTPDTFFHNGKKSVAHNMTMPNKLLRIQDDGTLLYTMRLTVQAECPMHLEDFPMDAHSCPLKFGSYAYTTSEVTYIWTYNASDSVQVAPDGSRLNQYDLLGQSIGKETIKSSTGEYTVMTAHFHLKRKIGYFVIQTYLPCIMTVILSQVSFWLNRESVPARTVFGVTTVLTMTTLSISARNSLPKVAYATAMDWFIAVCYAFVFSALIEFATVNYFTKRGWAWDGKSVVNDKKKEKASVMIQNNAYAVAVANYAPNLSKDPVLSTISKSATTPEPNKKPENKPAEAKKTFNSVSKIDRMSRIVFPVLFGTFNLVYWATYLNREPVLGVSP

[2] = biological target: T2, GABA-A receptor; alpha-1/beta-3/gamma-2 (Homo sapiens, UniProt P14867+P18507+P28472); assay: Inhibition of [3H]Ro-151788 binding to recombinant human gamma-aminobutyric-acid A receptor alpha-1-beta-3-gamma-2 subtype expressed in L (tk-) cells
T2 sequence (P14867 whole entry): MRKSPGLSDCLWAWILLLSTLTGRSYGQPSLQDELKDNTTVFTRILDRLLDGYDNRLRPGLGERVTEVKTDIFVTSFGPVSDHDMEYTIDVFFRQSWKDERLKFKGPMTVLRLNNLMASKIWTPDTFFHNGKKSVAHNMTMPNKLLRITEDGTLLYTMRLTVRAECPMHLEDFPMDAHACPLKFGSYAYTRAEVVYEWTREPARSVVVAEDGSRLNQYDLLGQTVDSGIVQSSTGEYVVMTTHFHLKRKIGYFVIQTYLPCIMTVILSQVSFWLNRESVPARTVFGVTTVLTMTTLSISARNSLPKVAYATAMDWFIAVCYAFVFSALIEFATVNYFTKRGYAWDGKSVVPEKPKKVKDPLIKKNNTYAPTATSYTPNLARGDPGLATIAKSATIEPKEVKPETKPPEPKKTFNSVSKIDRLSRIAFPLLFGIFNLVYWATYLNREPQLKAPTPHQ
T2 sequence (P18507 whole entry): T1 sequence (P18507 whole entry)
T2 sequence (P28472 whole entry): T1 sequence (P28472 whole entry)

[3] = biological target: T3, GABA-A receptor; alpha-3/beta-3/gamma-2 (Homo sapiens, UniProt P18507+P28472+P34903); assay: Inhibition of [3H]Ro-151788 binding to recombinant human gamma-aminobutyric-acid A receptor alpha-3-beta-3-gamma-2 subtype expressed in L (tk-) cells
T3 sequence (P18507 whole entry): T1 sequence (P18507 whole entry)
T3 sequence (P28472 whole entry): T1 sequence (P28472 whole entry)
T3 sequence (P34903 whole entry): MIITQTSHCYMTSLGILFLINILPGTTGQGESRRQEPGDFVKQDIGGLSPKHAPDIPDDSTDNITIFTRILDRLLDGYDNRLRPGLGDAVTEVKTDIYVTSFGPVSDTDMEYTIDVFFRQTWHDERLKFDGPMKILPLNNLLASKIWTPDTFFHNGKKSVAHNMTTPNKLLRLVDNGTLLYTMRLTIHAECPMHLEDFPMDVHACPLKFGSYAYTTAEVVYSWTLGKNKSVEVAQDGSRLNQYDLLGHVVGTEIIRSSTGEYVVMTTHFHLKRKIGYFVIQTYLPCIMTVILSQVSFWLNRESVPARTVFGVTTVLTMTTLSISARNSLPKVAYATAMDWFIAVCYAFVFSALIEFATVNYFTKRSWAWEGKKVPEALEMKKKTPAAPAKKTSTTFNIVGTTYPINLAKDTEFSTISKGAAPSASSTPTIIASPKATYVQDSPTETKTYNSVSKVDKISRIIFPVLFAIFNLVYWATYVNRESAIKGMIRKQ

[4] = biological target: T4, GABA-A receptor; alpha-5/beta-3/gamma-2 (Homo sapiens, UniProt P18507+P28472+P31644); assay: Inhibition of [3H]Ro-151788 binding to recombinant human gamma-aminobutyric-acid A receptor alpha-5-beta-3-gamma-2 subtype expressed in L (tk-) cells
T4 sequence (P18507 whole entry): T1 sequence (P18507 whole entry)
T4 sequence (P28472 whole entry): T1 sequence (P28472 whole entry)
T4 sequence (P31644 whole entry): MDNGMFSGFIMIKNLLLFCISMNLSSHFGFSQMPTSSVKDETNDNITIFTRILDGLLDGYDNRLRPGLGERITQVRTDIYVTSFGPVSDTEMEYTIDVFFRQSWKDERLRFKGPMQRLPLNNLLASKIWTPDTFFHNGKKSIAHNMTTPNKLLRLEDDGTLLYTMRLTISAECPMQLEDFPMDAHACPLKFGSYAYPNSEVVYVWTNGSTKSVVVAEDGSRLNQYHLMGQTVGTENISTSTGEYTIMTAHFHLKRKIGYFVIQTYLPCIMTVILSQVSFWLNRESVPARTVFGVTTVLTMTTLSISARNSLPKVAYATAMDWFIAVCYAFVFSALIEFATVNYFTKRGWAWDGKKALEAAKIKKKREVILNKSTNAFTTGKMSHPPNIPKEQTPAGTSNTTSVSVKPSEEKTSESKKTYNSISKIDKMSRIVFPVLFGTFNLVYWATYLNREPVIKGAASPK

Row | Structure (SMILES) | Ki [1] [nM] | Ki [2] [nM] | Ki [3] [nM] | Ki [4] [nM]
1 | c1ccc(-c2nnc3c4c(c(OCc5ccco5)nn23)C2CCC4CC2)cc1 | > 500 | > 500 | > 500 | > 500
2 | Cc1cc(COc2nn3c(-c4ccccc4)nnc3c3c2C2CCC3CC2)sn1 | 130 | 210 | 99 | 11
3 | O=C(COc1nn2c(-c3ccccc3)nnc2c2c1C1CCC2CC1)N1CCCC1 | 160 | 230 | 50 | 9
4 | c1ccc(COc2nn3c(N4CCOCC4)nnc3c3c2C2CCC3CC2)nc1 | > 1000 | > 1000 | > 1000 | > 1000
5 | c1ccc(-c2nnc3c4c(c(OCc5ccsc5)nn23)C2CCC4CC2)cc1 | > 500 | > 500 | > 500 | > 500
6 | O=C(Nc1ccccn1)c1nn2c(-c3ccccc3)nnc2c2c1C1CCC2CC1 | 290 | > 1000 | 170 | 40
7 | Cc1noc(COc2nn3c(-c4ccccc4)nnc3c3c2C2CCC3CC2)n1 | 250 | 290 | 51 | 12
8 | OCc1cccc(COc2nn3c(-c4ccccc4)nnc3c3c2C2CCC3CC2)c1 | 110 | 490 | 43 | 11
9 | Fc1ccc(-c2nnc3c4c(c(OCc5ccccn5)nn23)C2CCC4CC2)cc1 | 180 | 310 |  | 27
10 | COc1ccccc1-c1nnc2c3c(c(OCc4ccccn4)nn12)C1CCC3CC1 | > 1000 | > 1000 | > 1000 | 170
11 | c1ccc(-c2nnc3c4c(c(OCc5ccc6ccccc6n5)nn23)C2CCC4CC2)cc1 | 200 | 480 | 77 | 9.5
12 | Cc1scnc1COc1nn2c(-c3ccccc3)nnc2c2c1C1CCC2CC1 | 21 | 35 | 12 | 0.77
13 | CSOc1ccc(COc2nn3c(-c4ccccc4)nnc3c3c2C2CCC3CC2)cc1 | 41 | 96 | 31 | 7.6
14 | c1ccc(-c2nnc3c4c(c(Oc5cccnc5)nn23)C2CCC4CC2)cc1 | > 500 | > 500 | > 500 | > 500
15 | c1ccc(COc2nn3c(-c4ccco4)nnc3c3c2C2CCC3CC2)nc1 | 110 | 270 | 53 | 5.3
16 | Cc1cccc(-c2nnc3c4c(c(OCc5ccccn5)nn23)C2CCC4CC2)c1 | 210 | 570 | 140 | 17

Row | Structure (SMILES) | Ki [1] [nM] | Ki [2] [nM] | Ki [3] [nM] | Ki [4] [nM]
17 | Cc1csc(-c2nnc3c4c(c(OCc5ccccn5)nn23)C2CCC4CC2)n1 | 140 | > 1000 | 100 | 26
18 | c1ccc(-c2nnc3c4c(c(OCc5ncccn5)nn23)C2CCC4CC2)cc1 | 68 | 87 | 33 | 9.2
19 | OCc1ccc(COc2nn3c(-c4ccccc4)nnc3c3c2C2CCC3CC2)cc1 | 76 | 520 | 44 | 11
20 | Clc1ccc(COc2nn3c(-c4ccccc4)nnc3c3c2C2CCC3CC2)nn1 | 42 | 73 | 23 | 1.3
21 | CN1CCCCC1COc1nn2c(-c3ccccc3)nnc2c2c1C1CCC2CC1 (stereo unspecified) | > 1000 | > 1000 | > 1000 | > 1000
22 | c1ccc(-c2nnc3c4c(c(OCc5ccc6c(c5)OCO6)nn23)C2CCC4CC2)cc1 | > 500 | > 500 | > 500 | > 500
23 | O=C1CCC(COc2nn3c(-c4ccccc4)nnc3c3c2C2CCC3CC2)N1 (stereo unspecified) | 480 | 730 | 260 | 59
24 | N#Cc1ccc(COc2nn3c(-c4ccccc4)nnc3c3c2C2CCC3CC2)cc1 | 110 | 310 | 70 | 9.4
25 | Cc1conc1COc1nn2c(-c3ccccc3)nnc2c2c1C1CCC2CC1 | 35 | 80 | 18 | 2.7
26 | c1ccc(-c2nnc3c4c(c(OCc5nc6ccccc6s5)nn23)C2CCC4CC2)cc1 | > 1000 | > 1000 | 250 | 23
27 | N#Cc1ccccc1COc1nn2c(-c3ccccc3)nnc2c2c1C1CCC2CC1 | 83 | 190 | 53 | 2.6
28 | Cc1ccc(-c2nc3ccc(C)cn3c2CC(=O)N(C)C)cc1 [ZOLPIDEM] | 103 |  | 246 | > 3330
29 | Cc1nnc2ccc(-c3cccc(C(F)(F)F)c3)nn12 [CI-218872] | 720 | 66 | 850 | 460
30 | CN(C(=O)COc1nn2c(-c3ccccc3)nnc2c2c1C1CCC2CC1)c1ccccc1 | 72 | 21 | 41 | 7.4
31 | CN1CCCC(COc2nn3c(-c4ccccc4)nnc3c3c2C2CCC3CC2)C1 (stereo unspecified) | 260 | 750 | 460 | 100
32 | c1ccc(COc2nn3c(-c4ccsc4)nnc3c3c2C2CCC3CC2)nc1 | 52 | 130 | 38 | 4.4
